Assay results as given in ChEMBL document CHEMBL1123223, “New effective gonadotropin releasing hormone antagonists with minimal potency for histamine release in vitro” (J Med Chem, 1986).
Converted amounts (≈) assume the structure as drawn.

Legend:
Rattus norvegicus [1] = species: Rattus norvegicus; assay: Dissociation constant was determined in rat pituitary cells.; assay type: cell-based; conditions: pituitary gland cell
[2] = target: T1, Gonadotropin-releasing hormone receptor (Rattus norvegicus) (UniProt P30969); assay: Inhibition of GnRH-mediated LH secretion by cultured pituitary cells; assay type: functional, cell-based; conditions: Pituitary gland cell
T1 sequence (whole entry): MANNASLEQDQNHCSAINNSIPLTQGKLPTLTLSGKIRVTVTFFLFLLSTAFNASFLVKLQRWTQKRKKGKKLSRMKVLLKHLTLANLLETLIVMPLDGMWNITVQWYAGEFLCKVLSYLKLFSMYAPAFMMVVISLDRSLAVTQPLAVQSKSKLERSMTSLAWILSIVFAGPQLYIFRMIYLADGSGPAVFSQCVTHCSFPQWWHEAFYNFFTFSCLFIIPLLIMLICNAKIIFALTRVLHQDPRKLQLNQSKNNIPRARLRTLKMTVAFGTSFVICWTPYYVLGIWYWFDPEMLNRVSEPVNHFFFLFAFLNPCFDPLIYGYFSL

Rattus norvegicus [3] = species: Rattus norvegicus; assay: GnRH antagonistic dose of compound for 0 rats ovulation out of total 10 using anti-ovulatory assay in experiment 1; assay type: functional
Rattus norvegicus [4] = species: Rattus norvegicus; assay: GnRH antagonistic dose of compound for 8 rats ovulation out of total 16 using anti-ovulatory assay in experiment 1; assay type: functional
Rattus norvegicus [5] = species: Rattus norvegicus; assay: Compound was tested in vitro for its ability to inhibit histamine release from rat mast cells.; assay type: functional; conditions: read-out: ED50 (the source's name)
Rattus norvegicus [6] = species: Rattus norvegicus; assay: Compound was evaluated for time course of action on LH secretion in the castrated male rat at a time interval of 1 hr at 125 microg; assay type: functional
Rattus norvegicus [7] = species: Rattus norvegicus; assay: Compound was evaluated for time course of action on LH secretion in the castrated male rat at a time interval of 43 hr at 125 microg; assay type: functional
Rattus norvegicus [8] = species: Rattus norvegicus; assay: Compound was evaluated for time course of action on LH secretion in the castrated male rat at a time interval of 67 hr at 125 microg; assay type: functional
Rattus norvegicus [9] = species: Rattus norvegicus; assay: Compound was evaluated for time course of action on LH secretion in the castrated male rat at a time interval of 0 hr at 125 microg; assay type: functional
Rattus norvegicus [10] = species: Rattus norvegicus; assay: Compound was evaluated for time course of action on LH secretion in the castrated male rat at a time interval of 19 hr at 125 microg; assay type: functional
Rattus norvegicus [11] = species: Rattus norvegicus; assay: Compound was evaluated for time course of action on LH secretion in the castrated male rat at a time interval of 49 hr at 125 microg; assay type: functional
Rattus norvegicus [12] = species: Rattus norvegicus; assay: Compound was evaluated for time course of action on LH secretion in the castrated male rat at a time interval of 73 hr at 125 microg; assay type: functional
Rattus norvegicus [13] = species: Rattus norvegicus; assay: GnRH antagonistic dose of compound for 7 rats ovulation out of total 20 using anti-ovulatory assay; assay type: functional
Rattus norvegicus [14] = species: Rattus norvegicus; assay: GnRH antagonistic dose of compound for 8 rats ovulation out of total 10 using anti-ovulatory assay; assay type: functional
Rattus norvegicus [15] = species: Rattus norvegicus; assay: GnRH antagonistic dose of compound for 0 rats ovulation out of total 10 using anti-ovulatory assay in experiment 2; assay type: functional
Rattus norvegicus [16] = species: Rattus norvegicus; assay: GnRH antagonistic dose of compound for 5 rats ovulation out of total 10 using anti-ovulatory assay in experiment 1; assay type: functional
Rattus norvegicus [17] = species: Rattus norvegicus; assay: GnRH antagonistic dose of compound for 9 rats ovulation out of total 10 using anti-ovulatory assay; assay type: functional

| SMILES | Relative potency [2] | EC50 (Rattus norvegicus [5]) [µg/mL] | Kd (Rattus norvegicus [1]) [nM] | further results |
| --- | --- | --- | --- | --- |
| COc1ccc(C(=O)CC[C@@H](NC(=O)[C@H](CCCN=C(N)N)NC(=O)[C@H](CO)NC(=O)[C@@H](Cc2cccnc2)NC(=O)[C@@H](Cc2ccc(Cl)cc2)NC(=O)[C@@H](Cc2ccc3ccccc3c2)NC(C)=O)C(=O)N[C@@H](CC(C)C)C(=O)N[C@@H](CCCN=C(N)N)C(=O)N2CCC[C@H]2C(=O)N[C@H](C)C(=O)O)cc1 | 1.01 | 1.6 (≈ 1.08 µM) | 0.67 | ED100 (Rattus norvegicus [3]): 1.5 µg/kg; ED100 (Rattus norvegicus [4]): 0.5 µg/kg; LH level (Rattus norvegicus [6]): 6.31 ng/mL; LH level (Rattus norvegicus [7]): 3.27 ng/mL; LH level (Rattus norvegicus [8]): 3.67 ng/mL; LH level (Rattus norvegicus [9]): 13.38 ng/mL; LH level (Rattus norvegicus [10]): 3.68 ng/mL; LH level (Rattus norvegicus [11]): 2.94 ng/mL; LH level (Rattus norvegicus [12]): 5.06 ng/mL |
| CC(=O)N[C@H](Cc1ccc2ccccc2c1)C(=O)N[C@H](Cc1ccc(Cl)cc1)C(=O)N[C@H](Cc1cccnc1)C(=O)N[C@@H](CO)C(=O)N[C@@H](CCCN=C(N)N)C(=O)N[C@H](Cc1cn(Cc2ccccc2)cn1)C(=O)N[C@@H](CC(C)C)C(=O)N[C@@H](CCCN=C(N)N)C(=O)N1CCC[C@H]1C(=O)N[C@H](C)C(N)=O | – | 4.4 (≈ 2.94 µM) | – | ED100 (Rattus norvegicus [14]): 0.5 µg/kg |
| CC(=O)N1CCC[C@@H]1C(=O)N[C@H](Cc1ccc(F)cc1)C(=O)N[C@H](Cc1c[nH]c2ccccc12)C(=O)N[C@@H](CO)C(=O)N[C@@H](Cc1ccc(O)cc1)C(=O)N[C@H](Cc1c[nH]c2ccccc12)C(=O)N[C@@H](CC(C)C)C(=O)N[C@@H](CCCN=C(N)N)C(=O)N1CCC[C@H]1C(=O)NCC(=O)O | – | 39 (≈ 28.5 µM) | – | – |
| COc1ccc(C(=O)CC[C@@H](NC(=O)[C@H](Cc2ccc(O)cc2)NC(=O)[C@H](CO)NC(=O)[C@@H](Cc2cccnc2)NC(=O)[C@@H](Cc2ccc(Cl)cc2)NC(=O)[C@H]2CCCN2C(C)=O)C(=O)N(C)[C@@H](CC(C)C)C(=O)N[C@@H](CCCN=C(N)N)C(=O)N2CCC[C@@H]2C(=O)N[C@H](C)C(=O)O)cc1 | 0.13 | – | 0.31 | – |

Continued, in another order:

| Relative potency [2] | EC50 (Rattus norvegicus [5]) [µg/mL] | SMILES | Kd (Rattus norvegicus [1]) [nM] | further results |
| --- | --- | --- | --- | --- |
| 1.16 | 2.7 (≈ 1.8 µM) | CC(=O)N[C@H](Cc1ccc2ccccc2c1)C(=O)N[C@H](Cc1ccc(Cl)cc1)C(=O)N[C@H](Cc1cccnc1)C(=O)N[C@@H](CO)C(=O)N[C@@H](CCCN=C(N)N)C(=O)N[C@H](Cc1c[nH]c2cc([N+](=O)[O-])ccc12)C(=O)N[C@@H](CC(C)C)C(=O)N[C@@H](CCCN=C(N)N)C(=O)N1CCC[C@H]1C(=O)N[C@H](C)C(=O)O | 0.63 | ED100 (Rattus norvegicus [13]): 0.5 µg/kg |
| 0.09 | – | CC(=O)N[C@H](Cc1ccc2ccccc2c1)C(=O)N[C@H](Cc1ccc(Cl)cc1)C(=O)N[C@H](Cc1cccnc1)C(=O)N[C@@H](CO)C(=O)N[C@@H](CCCN=C(N)N)C(=O)N[C@H](CCC(=O)O)C(=O)N[C@@H](CC(C)C)C(=O)N[C@@H](CCCN=C(N)N)C(=O)N1CCC[C@@H]1C(=O)N[C@H](C)C(=O)O | 0.16 | – |
| 0.91 | 2.9 (≈ 2.05 µM) | CC(=O)N[C@H](Cc1ccc2ccccc2c1)C(=O)N[C@H](Cc1ccc(Cl)cc1)C(=O)N[C@H](Cc1cccnc1)C(=O)N[C@@H](CO)C(=O)N[C@@H](CCCN=C(N)N)C(=O)N[C@H](Cc1cccnc1)C(=O)N[C@@H](CC(C)C)C(=O)N[C@@H](CCCN=C(N)N)C(=O)N1CCC[C@H]1C(=O)N[C@H](C)C(=O)O | 0.24 | ED100 (Rattus norvegicus [15]): 1 µg/kg; ED100 (Rattus norvegicus [16]): 0.5 µg/kg |
| – | 17 (≈ 12.2 µM) | CC(=O)N[C@H](Cc1ccc2ccccc2c1)C(=O)N[C@H](Cc1ccc(Cl)cc1)C(=O)N[C@H](Cc1cccnc1)C(=O)N[C@@H](CO)C(=O)N[C@@H](CCCN=C(N)N)C(=O)N[C@H](CCC(=O)O)C(=O)N[C@@H](CC(C)C)C(=O)N[C@@H](CCCN=C(N)N)C(=O)N1CCC[C@H]1C(=O)N[C@H](C)C(=O)O | – | ED100 (Rattus norvegicus [17]): 10 µg/kg |
